{"source": "patent US10787424B2", "about": "“Oxopiperazine helix mimetics for control of Hypoxia-Inducible gene expression” (NEW YORK UNIVERSITY, priority 2014, dated 2020)", "key": {"p300-CH1 domain": {"biological_target": "T1, p300-CH1 domain (Homo sapiens, UniProt Q09472)", "T1 construct": "human p300 CH1 domain (amino acid residues 323-423); GST (N, cleaved yes); made in house; host or cells: E. coli BL21(DE3)", "T1 sequence (Q09472 323-423)": "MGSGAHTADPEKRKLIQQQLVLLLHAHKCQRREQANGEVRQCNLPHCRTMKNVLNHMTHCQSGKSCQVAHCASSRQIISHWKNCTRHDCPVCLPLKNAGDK", "details": "15N-labeled CH1; earlier study; cited from earlier work"}, "HIF signaling": {"test_system": "HIF signaling", "details": "cell culture, at micromolar levels; earlier study; cited from earlier work"}, "[1]": {"test_system": "triple-negative breast cancer cell line MDA-MB-231 xenograft", "details": "MDA-MB-231 mouse xenograft; earlier study; cited from earlier work"}, "[2]": {"test_system": "over 28,000 transcripts (genome-wide off-target regulation)", "details": "microarray gene expression profiling; earlier study; cited from earlier work"}, "[3]": {"biological_target": "T2, human p300 CH1 domain (p300-CH1) (Homo sapiens, UniProt Q09472)", "T2 construct": "human p300 CH1 domain (amino acid residues 323-423); GST (N, cleaved yes); made in house; host or cells: E. coli BL21(DE3)", "T2 sequence (Q09472 323-423)": "as above", "assay": "Tryptophan fluorescence binding assay for p300-CH1", "source_text": "The DNA sequence of the human p300 CH1 domain (amino acid residues 323-423) was subcloned into a pUC57 plasmid by Genscript, Inc. After transformation of JM109 bacteria (Promega) with the plasmid, it was amplified and purified. Then the gene of interest was subcloned between BamHI and EcoRI restriction sites of pGEX-4T-2 expression vector (Amersham).\nThe pGEX-4T-2-p300 fusion vector was transformed into BL21(DE3) competent E.coli (Novagen) in M9 minimal media with ^15NH4Cl as the primary nitrogen source. Protein production was induced with 1 mM IPTG at OD600 of 1 for 16 hours at 15° C. Production of the desired p300-CH1-GST fusion product was verified by SDS-PAGE. Bacteria were harvested and resuspended in the lysis buffer with 20 mM Phosphate buffer (Research Products International, Corp.), 100 μM DTT (Fisher), 100 μM ZnSO4 (Sigma), 0.5% TritonX 100 (Sigma), […] Pepstatin A (Research Products International, Corp.), […] Leupeptin A (Research Products International, Corp.), 500 μM PMSF (Sigma), and 0.5% glycerol at pH 8.0. Pellets were lysed by sonication and centrifuged at 4° C. and 20,000 rpm for 20 minutes. Fusion protein was collected from the bacterial supernatant and purified by affinity chromatography using glutathione Sepharose 4B beads (Amersham) prepared according to the manufacturer's directions. GST-tag was cleaved by thrombin and protein was eluted from resin. Collected fractions were assayed by SDS-PAGE gel; pooled fractions were treated with protease inhibitor cocktail (Sigma) and against a buffer containing 10 mM Tris, 50 mM NaCl, 2 mM DTT (Fisher), and 3 equivalents ZnSO4 at pH 8.0 to ensure proper folding (vide supra).\nRelative affinities of OHMs for p300-CH1 were determined using a tryptophan fluorescence binding assay. Spectra were recorded on a QuantaMaster 40 spectrofluorometer (Photon Technology International) in a 10 mm quartz fluorometer cell at 25° C. with 4 nm excitation and 4 nm emission slit widths from 200 to 400 nm at intervals of 1 nm/s. Samples were excited at 295 nm and fluorescence emission was measured from 200-400 nm and recorded at 335 nm. OHM stock solutions were prepared in DMSO. Aliquots containing 1 μL DMSO stocks were added to 400 μL of 1 μM p300-CH1 in 50 mM Tris and 100 μM NaCl (pH 8.0). After each addition, the sample was allowed to equilibrate for 5 minutes before UV analysis. Background absorbance and sample dilution effects were corrected by titrating DMSO into p300-CH1 in an analogous manner. Final fluorescence is reported as the absolute value of [(F1-F0)/F1]*100, where F1 is the final fluorescence upon titration, and F0 is the fluorescence of the blank DMSO titration. EC50 values for each peptide were determined by fitting the experimental data to a sigmoidal dose-response nonlinear regression model in GraphPad Prism 5.0, and the dissociation constants, KD, were obtained from equation (2). KD=(RT×(1−FSB)+LST×FSB^2)/FSB−LST (2)\nwhere: • RT=Total concentration of p300-CH1 • LST=Total concentration of fluorescent peptide • FSB=Fraction of bound fluorescent peptide Results and Discussion of Examples 1-8"}, "[4]": {"details": "binding affinity for p300-CH1, intrinsic tryptophan fluorescence assay (Table 8), read-out: Kd"}}, "note": "Read-outs that look alike come from different tables or passages of the source."}
{"compound": "CC(C)C[C@@H]1NCCN([C@@H](CC(C)C)C(=O)N2CCN([C@@H](CCC(N)=O)C(N)=O)C(=O)[C@@H]2C)C1=O", "note": "[OHM 21, LLAQ-NH2]", "values": [{"measurement": "HSQC resonance shifts on addition of compound", "setting": "p300-CH1 domain", "result": "consistent shifts in resonances of residues corresponding to the HIF1α816-824 binding pocket"}, {"measurement": "downregulation of HIF signaling", "setting": "HIF signaling", "result": "efficiently downregulated HIF signaling"}, {"measurement": "effect on tumor levels", "setting": "[1]", "result": "reduced tumor levels"}, {"measurement": "specificity on genome-wide scale", "setting": "[2]", "result": "remarkably specific"}, {"measurement": "Kd", "setting": "[3]; [4]", "result": "530 ± 140", "unit": "nM"}]}
{"compound": "CC(C)C[C@@H]1NCCN([C@@H](C)C(=O)N2CCN([C@@H](CCC(N)=O)C(N)=O)C(=O)[C@@H]2C)C1=O", "note": "[OHM 22, LAAQ]", "values": [{"measurement": "Kd", "setting": "[3]; [4]", "result": "> 10000", "unit": "nM"}, {"measurement": "Kd", "setting": "[3]; p300-CH1, text value, read-out: Kd for p300-CH1", "result": "> 30000", "unit": "nM"}]}
{"compound": "CCCC[C@@H](C(=O)N1CCN([C@@H](CCC(N)=O)C(N)=O)C(=O)[C@@H]1C)N1CCN[C@@H](CC(C)C)C1=O", "note": "[OHM 23, L(Nle)AQ]", "values": [{"measurement": "Kd", "setting": "[3]; [4]", "result": "30 ± 10", "unit": "nM"}, {"measurement": "Kd", "setting": "[3]; cross-specificity, p300-CH1 (Table 9), read-out: p300 Kd", "result": "30 ± 10", "unit": "nM"}, {"measurement": "enhancement in binding affinity over parent OHM 21", "setting": "[3]; p300, relative to OHM 21", "result": 13, "unit": "fold"}]}
{"compound": "CC(C)CC[C@@H]1NCCN([C@@H](CCC(C)C)C(=O)N2CCN([C@@H](CCC(N)=O)C(N)=O)C(=O)[C@@H]2C)C1=O", "note": "[OHM 25, (Hle)(Hle)AQ]", "values": [{"measurement": "Kd", "setting": "[3]; [4]", "result": "160 ± 60", "unit": "nM"}]}
{"compound": "CC(C)C[C@@H]1NCCN([C@@H](CC(C)C)C(=O)N2CCN([C@@H](C)C(N)=O)C(=O)[C@@H]2C)C1=O", "note": "[OHM 26]", "values": [{"measurement": "Kd", "setting": "[3]; [4]", "result": "620 ± 270", "unit": "nM"}]}
{"compound": "C[C@@H]1NCCN([C@@H](C)C(=O)N2CCN([C@@H](C)C(N)=O)C(=O)[C@@H]2C)C1=O", "note": "[OHM 27]", "values": [{"measurement": "Kd", "setting": "[3]; [4]", "result": "> 10000", "unit": "nM"}]}
